Assay results taken from patent US20070122830A1, “Prohibitin-directed diagnostics and therapeutics for cancer and chemotherapeutic drug resistance” (Aurelium BioPharma Inc., priority 2005, published 2007).
Like-named read-outs stand apart in the source and are kept apart here.

Tests used:
Type in all cases: cell-based, human
[1] = test system: MDA Breast Cancer Cell Line; assay: MTT cytotoxicity assay, transfected MDA cells plus chemotherapeutic drug; conditions: for EC50 / fold change of EC50, Prohibitin vs Control / IC50: MDA cells; for sensitivity to drug of prohibitin siRNA treated cells compared to mock-treated cells / sensitivity to drug of prohibitin siRNA treated cells compared to controls / sensitivity to drug of prohibitin siRNA treated cells compared to mock controls: MDA; for sensitivity to drug of prohibitin siRNA treated cells compared to mock-treated cells: FIG. 9A-9H; for sensitivity to drug of prohibitin siRNA treated cells compared to controls: FIGS. 10A-10H; for IC50: Homo sapiens
Description: (§1) For a typical siRNA transfection, 1 nmole of the annealed siRNA duplex was mixed with 1.4 ml of Opti-MEM reagent (Invitrogen). In another tube, […] of Oligofectamine reagent (Invitrogen, Carlsbad, Calif.) was mixed with […] of Opti-MEM. The two solutions were combined and mixed gently by inversion and incubated for 20 min. at RT. The resulting solution was added to the cultured cells drop by drop in a 10 cm dish (cells are approximately 40-50% confluent). The next day the transfected cells were trypsinized and seeded in 6 or 96-well plates and further incubated for the indicated amount of time (assay dependent) before further analysis.
(§2) RNA-transfected cells were seeded in triplicate into 96-well plates at 5×10^3 cells/well 48 hrs post-transfection. The cells were incubated for an additional 16 to 24 hrs before they were exposed to increasing concentrations of cytotoxic drugs. […] Appropriate dilutions were made in the respective media for each cell line. Following addition of drugs, incubation was continued for an additional 72 hrs. […] of MTT dye (5 mg/ml) were added into each well and the plate was further incubated at 37° C. for 4 hrs. The dye was solubilized with 10% Triton X-100, 0.01 N HCl and further incubated at 37° C. in the dark for 30 min. Cell viability was determined by measure of absorption at 570 nm in a Wallac multiwell plate reader (PerkinElmer, Inc., Boston, Mass.). The averages of triplicate wells were plotted using the Prism software (GraphPad Software, Inc., San Diego, Calif.).

[2] = test system: MCF-7 Breast Cancer Cell Line; assay: MTT cytotoxicity assay, transfected MCF-7 cells plus chemotherapeutic drug; conditions: for fold change of EC50, Prohibitin vs Control: direction IS/IR in same cell (E42); for sensitivity to drug of prohibitin siRNA treated cells: MCF-7, FIGS. 15A-15H
Description: as §1
as §2, with “Cell survival was determined using the MTT cytotoxicity assay (see, e.g., Tokuyama et al. (2005) Anticancer Res. 25(1A): 17-22). RNA-transfected” for “RNA-transfected”, “drugs. Doxorubicin (adriamycin), cisplatinum, taxol, vinblastin, vincristin, and mitoxantrone were all purchased from Sigma Corp. (St. Louis, Mo.).” for “drugs.”
Cell survival was determined as described in Example 3 above.

[3] = test system: SKOV3 Ovarian Cancer Cell Line; assay: MTT cytotoxicity assay, transfected SKOV3 cells plus chemotherapeutic drug; conditions: for EC50 / fold change of EC50, Prohibitin vs Control: SKOV3 cells; for fold change of EC50, Prohibitin vs Control: direction IS/IR in same cell (E54); for IC50: Homo sapiens, SK-OV-3, SKOV3 cells
Description: as §1, §2
Each table summarizes the results of an individual experiment performed in triplicate.

[4] = mock-transfected control, Table 3 experiment, read-out: EC50, Control
[5] = mock-transfected control, Table 4 experiment, read-out: EC50, Control
[6] = mock-transfected control, Table 5 experiment, read-out: EC50, Control
[7] = mock-transfected control, Table 6 experiment, read-out: EC50, Control
[8] = mock-transfected control, Table 7 experiment, read-out: EC50, Control
[9] = mock-transfected control, Table 8 experiment, read-out: EC50, Control
[10] = prohibitin (siRNA) transfected, Table 3 experiment, read-out: EC50, Prohibitin
[11] = prohibitin (siRNA) transfected, Table 4 experiment, read-out: EC50, Prohibitin
[12] = prohibitin (siRNA) transfected, Table 5 experiment, read-out: EC50, Prohibitin
[13] = prohibitin (siRNA) transfected, Table 6 experiment, read-out: EC50, Prohibitin
[14] = prohibitin (siRNA) transfected, Table 7 experiment, read-out: EC50, Prohibitin
[15] = prohibitin (siRNA) transfected, Table 8 experiment, read-out: EC50, Prohibitin
[16] = Table 3 experiment, direction IS/IR in same cell (E6)
[17] = Table 4 experiment, direction IS/IR in same cell (E12)
[18] = Table 6 experiment, direction IS/IR in same cell (E24)
[19] = Table 7 experiment, direction IS/IR in same cell (E30)
[20] = Table 8 experiment, direction IS/IR in same cell (E36)
[21] = MCF-7 cells, prohibitin (siRNA) transfected, Table 9, read-out: EC50, Prohibitin
[22] = mock-transfected control, Table 10 experiment, read-out: EC50, Control
[23] = mock-transfected control, Table 11 experiment, read-out: EC50, Control
[24] = prohibitin (siRNA) transfected, Table 10 experiment, read-out: EC50, Prohibitin
[25] = prohibitin (siRNA) transfected, Table 11 experiment, read-out: EC50, Prohibitin
[26] = Homo sapiens, MCF7, MCF-7 cells, prohibitin (siRNA) transfected, Table 9, read-out: EC50, Prohibitin

Compound: N.N.[Cl][Pt][Cl] [Cisplatinum]
- EC50 [1, 4]: 255 µM
- EC50 [1, 5]: 374 µM
- EC50 [1, 6]: 94.3 µM
- EC50 [1, 7]: 164 µM
- EC50 [1, 8]: 76.8 µM
- EC50 [1, 9]: 29.3 µM
- EC50 [1, 10]: 189 µM
- EC50 [1, 11]: 271 µM
- EC50 [1, 12]: 124 µM
- EC50 [1, 13]: 189 µM
- EC50 [1, 14]: 54.5 µM
- EC50 [1, 15]: 57 µM
- fold change of EC50, Prohibitin vs Control [1, 16]: 1.2 x
- fold change of EC50, Prohibitin vs Control [1, 17]: 1.4 x
- fold change of EC50, Prohibitin vs Control ([1]; Table 5 experiment, direction IS/IR in same cell (E18)): 1.3 x
- fold change of EC50, Prohibitin vs Control [1, 18]: 1.1 x
- fold change of EC50, Prohibitin vs Control [1, 19]: 1.4 x
- fold change of EC50, Prohibitin vs Control [1, 20]: 1.9 x
- sensitivity to drug of prohibitin siRNA treated cells compared to mock-treated cells [1]: increased sensitivity
- sensitivity to drug of prohibitin siRNA treated cells compared to controls [1]: more sensitive
- sensitivity to drug of prohibitin siRNA treated cells compared to mock controls ([1]; FIGS. 13A-13H): increased sensitivity
- EC50 ([2]; MCF-7 cells, mock-transfected control, Table 9, read-out: EC50, Control): 118 µM
- EC50 [2, 21]: 151 µM
- change in sensitivity to the drug, Prohibitin vs Control ([2]; MCF-7 cells, Table 9): IR (IR: “increased in resistance” to the drug)
- fold change of EC50, Prohibitin vs Control ([2]; MCF-7 cells, Table 9): 1.3 x
- EC50 [3, 22]: 22.4 µM
- EC50 [3, 23]: 50 µM
- EC50 [3, 24]: 26.3 µM
- EC50 [3, 25]: 68.8 µM
- fold change of EC50, Prohibitin vs Control ([3]; Table 11 experiment): 1.4 x

Compound: O=C1c2c(O)ccc(O)c2C(=O)c2c(NCCNCCO)ccc(NCCNCCO)c21 [Mitoxantrone]
- IC50 [1, 4]: 0.00011 µM
- IC50 [1, 5]: 9.61e-05 µM
- IC50 [1, 8]: 0.0441 µM
- IC50 [1, 9]: 0.0409 µM
- EC50 [1, 10]: 0.000173 µM
- EC50 [1, 11]: 0.000409 µM
- EC50 [1, 14]: 0.0276 µM
- EC50 [1, 15]: 0.0266 µM
- fold change of EC50, Prohibitin vs Control [1, 16]: 1.6 x
- fold change of EC50, Prohibitin vs Control [1, 17]: 4.2 x
- fold change of EC50, Prohibitin vs Control [1, 19]: 1.6 x
- fold change of EC50, Prohibitin vs Control [1, 20]: 1.5 x
- sensitivity to drug of prohibitin siRNA treated cells compared to mock controls ([1]; FIGS. 13A-13H): increased the sensitivity
- sensitivity to drug of prohibitin siRNA treated cells compared to mock controls ([1]; FIGS. 14A-14H): more sensitive
- sensitivity to drug of prohibitin siRNA treated cells [2]: more sensitive
- EC50 [2, 21]: 0.00394 µM
- fold change of EC50, Prohibitin vs Control ([2]; MCF-7 cells, Table 9): 2.2 x
- IC50 [3, 22]: 0.000801 µM
- IC50 [3, 23]: 0.000147 µM
- EC50 [3, 24]: 0.000358 µM
- EC50 [3, 25]: 0.000118 µM
- fold change of EC50, Prohibitin vs Control ([3]; Table 11 experiment): 1.2 x

Compound: N[C@@H](Cc1ccc(N(CCCl)CCCl)cc1)C(=O)O [Melphalan]
- IC50 [1, 4]: 60.1 µM
- IC50 [1, 5]: 36.1 µM
- IC50 [1, 8]: 24.9 µM
- IC50 [1, 9]: 35.4 µM
- EC50 [1, 10]: 39.1 µM
- EC50 [1, 11]: 41 µM
- EC50 [1, 14]: 23.9 µM
- EC50 [1, 15]: 19.1 µM
- fold change of EC50, Prohibitin vs Control [1, 16]: 1.5 x
- fold change of EC50, Prohibitin vs Control [1, 17]: 1.1 x
- fold change of EC50, Prohibitin vs Control [1, 20]: 1.8 x
- sensitivity to drug of prohibitin siRNA treated cells compared to mock-treated cells [1]: increased sensitivity
- sensitivity to drug of prohibitin siRNA treated cells compared to mock controls ([1]; FIGS. 14A-14H): more sensitive
- EC50 ([2]; Homo sapiens, MCF7, MCF-7 cells, mock-transfected control, Table 9, read-out: EC50, Control): 14.7 µM
- EC50 [2, 26]: 10.5 µM
- sensitivity to drug of prohibitin siRNA treated cells [2]: more sensitive
- fold change of EC50, Prohibitin vs Control ([2]; MCF-7 cells, Table 9): 1.4 x
- IC50 [3, 22]: 5.79 µM
- IC50 [3, 23]: 5.95 µM
- EC50 [3, 24]: 4.54 µM
- EC50 [3, 25]: 4.57 µM
- fold change of EC50, Prohibitin vs Control ([3]; Table 11 experiment): 1.3 x

Compound: COc1cc([C@@H]2c3cc4c(cc3[C@@H](O[C@@H]3O[C@@H]5CO[C@@H](C)O[C@H]5[C@H](O)[C@H]3O)[C@H]3COC(=O)[C@H]23)OCO4)cc(OC)c1O [Etoposide]
- IC50 [1, 4]: 78.9 µM
- IC50 [1, 5]: 83.9 µM
- IC50 [1, 8]: 9.56 µM
- IC50 [1, 9]: 9.31 µM
- IC50 [1, 10]: 76.5 µM
- IC50 [1, 11]: 63 µM
- IC50 [1, 14]: 10 µM
- IC50 [1, 15]: 9.64 µM
- fold change of EC50, Prohibitin vs Control [1, 17]: 1.3 x
- sensitivity to drug of prohibitin siRNA treated cells compared to controls [1]: more sensitive
- EC50 [2, 26]: 7.28 µM
- sensitivity to drug of prohibitin siRNA treated cells [2]: more sensitive
- fold change of EC50, Prohibitin vs Control ([2]; MCF-7 cells, Table 9): 2.2 x
- IC50 [3, 22]: 0.621 µM
- IC50 [3, 23]: 0.148 µM
- EC50 [3, 24]: 0.611 µM
- EC50 [3, 25]: 0.241 µM

Compound: S=P(N1CC1)(N1CC1)N1CC1 [Thiotepa]
- IC50 [1, 4]: 600 µM
- IC50 [1, 5]: 510 µM
- IC50 [1, 7]: 628 µM
- IC50 [1, 8]: 146 µM
- IC50 [1, 9]: 159 µM
- IC50 [1, 10]: 475 µM
- IC50 [1, 11]: 291 µM
- IC50 [1, 13]: 527 µM
- IC50 [1, 14]: 97.1 µM
- IC50 [1, 15]: 164 µM
- fold change of EC50, Prohibitin vs Control [1, 16]: 1.3 x
- fold change of EC50, Prohibitin vs Control [1, 17]: 1.7 x
- fold change of EC50, Prohibitin vs Control [1, 18]: 1.2 x
- fold change of EC50, Prohibitin vs Control [1, 19]: 1.5 x
- sensitivity to drug of prohibitin siRNA treated cells compared to mock-treated cells [1]: increased sensitivity
- sensitivity to drug of prohibitin siRNA treated cells compared to controls [1]: more sensitive
- sensitivity to drug of prohibitin siRNA treated cells compared to mock controls ([1]; FIGS. 12A-12D): increased sensitivity
- sensitivity to drug of prohibitin siRNA treated cells compared to mock controls ([1]; FIGS. 13A-13H): increased the sensitivity
- IC50 [3, 22]: 35 µM
- IC50 [3, 23]: 16.5 µM
- EC50 [3, 24]: 24.9 µM
- EC50 [3, 25]: 13.9 µM
- fold change of EC50, Prohibitin vs Control ([3]; Table 11 experiment): 1.2 x

Compound: CC(=O)O[C@@]12CO[C@@H]1C[C@H](O)[C@@]1(C)C(=O)[C@H](O)C3=C(C)[C@@H](OC(=O)[C@H](O)[C@@H](NC(=O)OC(C)(C)C)c4ccccc4)C[C@@](O)([C@@H](OC(=O)c4ccccc4)[C@H]21)C3(C)C [Docetaxel]
- sensitivity to drug of prohibitin siRNA treated cells [2]: more sensitive
- EC50 [2, 21]: 0.00534 µM
- fold change of EC50, Prohibitin vs Control ([2]; MCF-7 cells, Table 9): 13.8 x

Compound: CC[C@]1(O)C[C@@H]2CN(CCc3c([nH]c4ccccc34)[C@@](C(=O)OC)(c3cc4c(cc3OC)N(C)[C@H]3[C@@](O)(C(=O)OC)[C@H](OC(C)=O)[C@]5(CC)C=CCN6CC[C@]43[C@@H]65)C2)C1 [Vinblastin]
- EC50 [1, 6]: 0.157 µM
- EC50 [1, 12]: 2.55 µM
